From PubChem BioAssay AID1996
≈ marks a conversion by molar mass, not a printed value.

Conditions: buffer; pH 7.4; 200.0 µM

| SMILES | solubility kinetic |
| --- | --- |
| O=C(NCCCn1ccnc1)c1c(F)cccc1F | 38 µg/mL (≈ 143 µM) |
| O=S(=O)(c1cc(F)ccc1F)N1CCN2CCCC2C1 (configuration not stated) | > 45.4 µg/mL |
| C=CCn1cc(C=C2C(=O)N(C)C(=O)N(C)C2=O)c2ccccc21 | 0.8 µg/mL (≈ 2.47 µM) |
| COc1ccccc1-c1noc(CCCC(=O)NC2CCCC2)n1 | 44.4 µg/mL (≈ 135 µM) |
| CC1CCC(NC(=O)CN2C(=O)c3ccccc3S2(=O)=O)CC1 (configuration not stated) | > 50.5 µg/mL |
| CC1(C)C(=O)N(c2ccccc2)C1c1ccccc1O (configuration not stated) | > 40.1 µg/mL |
| Cc1ccsc1C(=O)C1CCCN(Cc2cnc(N)nc2)C1 (configuration not stated) | 37.8 µg/mL (≈ 119 µM) |
| CC(C)NC(=O)COc1nncc2ccccc12 | > 36.8 µg/mL |
| O=[N+]([O-])c1ccccc1S(=O)(=O)Nc1ccc2c(c1)OCCO2 | > 50.4 µg/mL |
| COc1ccccc1NC(=S)N(Cc1cccs1)C1CCCC1 | 6 µg/mL (≈ 17.3 µM) |
| CC(=O)Nc1ccccc1OCC(=O)NCC(F)(F)F | 43.2 µg/mL (≈ 149 µM) |
| O=C(Nc1ccc(NC(=O)c2cccs2)cc1)c1ccccc1 | < 0.3 µg/mL |
| CN(C)C(=O)Oc1cccc([N+](C)(C)C)c1.COS(=O)(=O)[O-] | > 50.2 µg/mL |
| O=C(COC(=O)c1ccc(O)cc1)NC1CCCCCC1 | > 43.7 µg/mL |
| O=C(Nc1cccc(F)c1)c1ccc2ncsc2c1 | 39.8 µg/mL (≈ 146 µM) |
| Cc1cccc(NC2=C(Cl)C(=O)OC2OC(=O)c2ccco2)c1 (configuration not stated) | 35.1 µg/mL (≈ 105 µM) |
| COc1ccc(Oc2ccc(C(F)(F)F)cc2NC(=O)c2ccc(F)cc2)cc1 | < 0.9 µg/mL |
| O=[N+]([O-])c1cccc(-c2ccc(CN3CCN(c4ccccc4)CC3)o2)c1 | 1.4 µg/mL (≈ 3.85 µM) |
| Cc1ccc(S(=O)(=O)CCN2C=CC(C(F)(F)F)=NCC2)cc1 | 51.4 µg/mL (≈ 148 µM) |
| COc1ccc(/C=C2\C(=O)NCC(=O)N2C)cc1 | 11.4 µg/mL (≈ 46.3 µM) |
| O=C(CSc1ccc(Cl)cc1)NCc1ccncc1 | > 43.9 µg/mL |
| COc1cc(Oc2nc(C(F)(F)F)nc3ccccc23)ccc1C=O | < 0.4 µg/mL |

| SMILES | solubility kinetic |
| --- | --- |
| Cc1ccc(NC2CC(C)NC(=S)N2)cc1 (configuration not stated) | 33.1 µg/mL (≈ 141 µM) |
| CCOP(=O)(OCC)C(NC(=O)NC)C(N)=O (configuration not stated) | 30.4 µg/mL (≈ 114 µM) |
| Cc1nc(Cl)c(C(=O)NCc2ccccc2)c(C)c1[N+](=O)[O-] | 10.8 µg/mL (≈ 33.8 µM) |
| O=C(O)c1csc(-c2cccc(Cl)c2)n1 | 33.9 µg/mL (≈ 141 µM) |
| C=CCNc1nc2ccccc2nc1NS(=O)(=O)c1ccc(OC)cc1 | 45.9 µg/mL (≈ 124 µM) |
| COCCCn1c(=O)c2ccccc2n2c(=S)[nH]nc12 | > 43.6 µg/mL |
| Cc1ccc2oc(C(=O)NCc3ncc(C)[nH]3)c(C)c2c1 | 38.7 µg/mL (≈ 137 µM) |
| CCCNC(=O)Nc1cc(S(=O)(=O)CC)ccc1O | 37.9 µg/mL (≈ 132 µM) |
| COCCCNC(=S)Nc1ccc(C)cc1 | > 35.8 µg/mL |
| CC(C)(C)CC(=O)O/N=C(\N)c1ccncc1 | > 35.3 µg/mL |
| CNC(=O)CN1C(=O)NC2(CCc3ccccc3C2)C1=O (configuration not stated) | > 43.1 µg/mL |
| O=Cc1c[nH]c2cccc(OCc3ccccc3)c12 | 4.6 µg/mL (≈ 18.3 µM) |
| COc1ccc(Cl)cc1N1C(=O)CC(Sc2ccccc2N)C1=O (configuration not stated) | < 0.4 µg/mL |
| CCCSc1ncccc1C(=O)O | > 29.6 µg/mL |
| Cc1noc(C(=O)Nc2ccc(C#N)cc2)c1Cl | 1.6 µg/mL (≈ 6.11 µM) |
| COc1ccccc1CC(=O)Nc1cccc(C)n1 | > 38.4 µg/mL |
| Oc1ccc2c(c1)c1c3n2CCNC3CCC1 (configuration not stated) | 31.3 µg/mL (≈ 137 µM) |
| COc1ccccc1CN(C)C(=O)COC(=O)c1c(C)noc1C | > 49.9 µg/mL |
| CCCN1CCC(NC(=S)Nc2ccc(OC)c(OC)c2)CC1 | > 50.6 µg/mL |
| COC(=O)Nc1cc(C(=O)c2ccc(Cl)cc2Cl)c[nH]1 | 43.6 µg/mL (≈ 139 µM) |
| O=C(NS(=O)(=O)Nc1ccccn1)c1c[nH]c2ccccc12 | > 47.4 µg/mL |
| CC(=NCCCO)c1c(O)[nH]c(=O)[nH]c1=O | > 34.1 µg/mL |

| SMILES | solubility kinetic |
| --- | --- |
| COc1cc(C)cc(OC)c1OCC(=O)Nc1cc(C)on1 | 6.4 µg/mL (≈ 20.9 µM) |
| CN(C)c1cccc(C(=O)NCCCSc2ccccc2)c1 | 17.9 µg/mL (≈ 56.9 µM) |
| COc1ccc(Cl)cc1N(CC(=O)N1CCCC1)S(C)(=O)=O | 51.5 µg/mL (≈ 148 µM) |
| CC(=O)Nc1cc(C)c2nc(NC(C)=O)sc2c1 | 25.7 µg/mL (≈ 97.6 µM) |
| O=C(COc1ccc(NC(=O)c2ccccc2)cc1)c1ccccc1 | 1.1 µg/mL (≈ 3.32 µM) |
| CC(C)(C)SCCNC(=O)CN1C(=O)c2cccc3cccc1c23 | 2.8 µg/mL (≈ 8.18 µM) |
| CC1CC(C)CN(C(=O)COc2ccc([N+](=O)[O-])cc2Cl)C1 (configuration not stated) | 11 µg/mL (≈ 33.7 µM) |
| O=C1NC(=O)N(c2ccc3c(c2)OCO3)C(=O)/C1=C\c1ccsc1 | > 51.3 µg/mL |
| CCCNC(=O)COC(=O)/C=C/c1ccc(C)o1 | > 37.7 µg/mL |
| N#C/C(=C\c1ccncc1)c1ccc(NC(N)=O)cc1 | 13.8 µg/mL (≈ 52.2 µM) |
| Cl.N=C1CCCN1c1ccccc1O | 30.6 µg/mL |
| Cc1cc(C(=O)N2CCCC(Nc3ccc(F)cc3)C2)n(C)n1 (configuration not stated) | > 47.5 µg/mL |
| CCOc1cc(/C=C2\SC(N)=NC2=O)ccc1O | 22.5 µg/mL (≈ 85.1 µM) |
| Cc1noc(C)c1COC(=O)c1cccnc1Cl | > 40 µg/mL |
| O=C(O)c1cc([N+](=O)[O-])c(NCCC2=CCCCC2)c([N+](=O)[O-])c1 | > 50.3 µg/mL |
| CC(C)CCNc1nc(N)c([N+](=O)[O-])c(NCCO)n1 | 42.3 µg/mL (≈ 149 µM) |
| O=c1[nH]c(=S)n(-c2ccccc2)c(O)c1C=NCCN1CCNCC1 | > 53.9 µg/mL |
| Cc1cc(C)cc(NC2=NCCCS2)c1 | 32.1 µg/mL (≈ 146 µM) |
| Cn1cc(C(=O)NCC(=O)Nc2ccccc2Br)cn1 | > 50.6 µg/mL |
| CCOc1ccc(N2CC(C(=O)NCCc3ccc(F)cc3)CC2=O)cc1 (configuration not stated) | 30.8 µg/mL (≈ 83.1 µM) |
| Cc1cccc(OC(=O)c2cccnc2)c1 | 12.6 µg/mL (≈ 59.1 µM) |
| CCC(=O)Nc1ccc2c(c1)nc1n2CCN(C2CCCCC2)C1 | > 49 µg/mL |

| SMILES | solubility kinetic |
| --- | --- |
| CN(C(=S)NC(=O)C1CC1)c1ccc(O)cc1 | > 37.5 µg/mL |
| Cc1ccc(NC(=O)c2ccc(Cl)c(S(=O)(=O)NCc3ccco3)c2)c(O)c1 | 7.3 µg/mL (≈ 17.3 µM) |
| O=[N+]([O-])c1ccc(C[n+]2cccc3ccccc32)cc1.[Cl-] | 41 µg/mL |
| COC(=O)c1cccc(NC(=O)c2ccc3c(c2)C(=O)N(C(C)(C)C)C3=O)c1 | < 0.4 µg/mL |
| O=C(CNC(=O)c1ccco1)Nc1ccc(F)cc1 | 37 µg/mL (≈ 141 µM) |
| Cc1ccccc1NC(=O)c1ccccc1N(C)S(=O)(=O)c1ccccc1 | 46.3 µg/mL (≈ 122 µM) |
| O=C(CCc1nc(-c2ccccn2)no1)NCc1ccc2c(c1)OCO2 | 52.5 µg/mL (≈ 149 µM) |
| CC(=O)N1CCN(CC(c2ccccc2)c2ccccc2)CC1 | 38.7 µg/mL (≈ 125 µM) |
| CC(=O)NCCc1c[nH]c2ccc(OCc3ccccc3)cc12 | 42.4 µg/mL (≈ 137 µM) |
| CCOC(=O)Cn1cnc2scc(-c3ccc(C)c(C)c3)c2c1=O | 22.5 µg/mL (≈ 65.7 µM) |
| O=c1[nH]cnc2c1ncn2[C@@H]1C[C@@H](O)[C@H](CO)O1 | > 37.8 µg/mL |
| O=C(O)c1ccc(/C=C/c2nc3ccccc3c(=O)[nH]2)cc1 | > 43.8 µg/mL |
| O=C(CN1CCCC1)Nc1c(C(=O)C2CC2)oc2ccccc12 | 31.8 µg/mL (≈ 102 µM) |
| CCOP(=O)(OCC)C(Nc1ccc(C)cc1)c1ccco1 (configuration not stated) | 46.3 µg/mL (≈ 143 µM) |
| COc1ccc(S(=O)(=O)N2CCNCC2)cc1 | 31.1 µg/mL (≈ 121 µM) |
| CC(C)c1ccc(N=C2N=C(N)c3ccccc32)cc1 | 15.4 µg/mL (≈ 58.5 µM) |
| Cc1ccc(CNC(=O)CCCC(=O)c2ccccc2)cc1 | 7.9 µg/mL (≈ 26.7 µM) |
| COc1cc(/C=C/C(=O)OCC(=O)NC(=O)NCc2ccco2)ccc1OC(F)F | 7.1 µg/mL (≈ 16.7 µM) |
| CN1CCN(NC(=O)NC2CCCCC2)CC1 | > 36.1 µg/mL |
| CCOC(=O)C(Cc1c(F)cccc1Cl)c1ccno1 (configuration not stated) | 29.6 µg/mL (≈ 99.4 µM) |
| COc1c(C)cc(Br)cc1C(=O)Nc1ccccc1C | < 0.7 µg/mL |
